Reference: patent US20260137662A1, “CD11B AGONISTS FOR TREATMENT OF AUTOIMMUNE DISEASE” (Rush University Medical Center, priority 2022, published 2026)

Tests used:
[1] = system: TLR7 mediated pro-inflammatory biomarkers; experiment: Secretion of pro-inflammatory biomarkers from myeloid cells stimulated with imiquimod (ELISA); format: cell-based; details: IMQ (20 ug/mL) and LA1 (20 uM) co-treatment, 4 hours
Experimental: FIG. 5A illustrates the levels of biomarker IL-1b secretion in myeloid cells after 4 hours of treatment with vehicle DMSO (UT), LA1 (20 uM), Imiquimod (IMQ) (20 ug/mL), or IMQ and LA1 co-treatment. Bars show mean with SD (N=3) (*P<0.05, **P<0.01, ***P<0.001, ***P<0.0001).
FIG. 5B illustrates the levels of biomarker suPAR secretion in myeloid cells after 4 hours of treatment with vehicle DMSO (UT), LA1 (20 uM), Imiquimod (IMQ) (20 ug/mL), or IMQ and LA1 co-treatment. Bars show mean with SD (N=3) (*P<0.05, **P<0.01, ***P<0.001, ***P<0.0001).
FIG. 5C illustrates the levels of biomarker IL-6 secretion in myeloid cells after 4 hours of treatment with vehicle DMSO (UT), LA1 (20 uM), Imiquimod (IMQ) (20 ug/mL), or IMQ and LA1 co-treatment. Bars show mean with SD (N=3) (*P<0.05, **P<0.01, ***P<0.001, ***P<0.0001).
FIG. 5D illustrates the levels of biomarker TNFalpha secretion in myeloid cells after 4 hours of treatment with vehicle DMSO (UT), LA1 (20 uM), Imiquimod (IMQ) (20 ug/mL), or IMQ and LA1 co-treatment.
FIG. 5E illustrates the levels of biomarker IFN-b secretion in myeloid cells after 4 hours of treatment with vehicle DMSO (UT), LA1 (20 uM), Imiquimod (IMQ) (20 ug/mL), or IMQ and LA1 co-treatment. Bars show mean with SD (N=3) (*P<0.05, **P<0.01, ***P<0.001, ****P<0.0001).
The concentration of TLR7 mediated pro-inflammatory biomarkers in untreated myeloid cells, myeloid cells treated with LA1, myeloid cells treated with IMQ, and myeloid cells co-treated with IMQ and LA1 was assessed by ELISA.

[2] = system: IMQ-induced mouse model of lupus; experiment: IMQ-induced mouse model of lupus, LA1 started 0, 2 or 4 weeks after disease induction; format: in vivo, wild type C57BL/6 mice
Experimental: FIG. 12A illustrates levels of anti-dsDNA antibodies measured weekly in mice co-treated with IMQ and LA1 (30 mg/kg, BID) for 8 weeks. Each dot represents mean +/−SEM (n=4).
FIG. 12B illustrates levels of anti-dsDNA antibodies measured weekly in mice treated with IMQ for 8 weeks starting at week 0 and additionally treated with LA1 (30 mg/kg, BID) for 6 weeks, starting at week 2. Each dot represents mean +/−SEM (n=4).
FIG. 12C illustrates levels of anti-dsDNA antibodies measured weekly in mice treated with IMQ for 8 weeks starting at week 0 and additionally treated with LA1 (30 mg/kg, BID) for 4 weeks, starting at week 4. Each dot represents mean +/−SEM (n=4).
FIG. 12D illustrates levels of biomarker suPAR measured weekly in mice co-treated with IMQ and LA1 (30 mg/kg, BID) for 8 weeks. Each dot represents mean +/−SEM (n=4).
FIG. 12E illustrates levels of biomarker suPAR measured weekly in mice treated with IMQ for 8 weeks starting at week 0 and additionally treated with LA1 (30 mg/kg, BID) for 6 weeks, starting at week 2. Each dot represents mean +/−SEM (n=4).
FIG. 12F illustrates levels of biomarker suPAR measured weekly in mice treated with IMQ for 8 weeks starting at week 0 and additionally treated with LA1 (30 mg/kg, BID) for 4 weeks, starting at week 4. Each dot represents mean +/−SEM (n=4).
FIG. 12G illustrates an experimental timeline for the measurement of anti-dsDNA antibody and suPAR levels in mice treated with IMQ and LA1 for 8 weeks, the LA1 treatment initiated at various time points.
To assess therapeutic efficacy of LA1 in a TLR7-dependent SLE murine model, an IMQ-induced mouse model of lupus (Yokogawa et al., 2014) was used. To induce disease, wild type C57BL/ 6 mice (WT) were treated with IMQ cream (Aldara) over the course of 8 weeks. IMQ-induced mice were then treated with LA 1, the treatment initiated at 0, 2, and 4 weeks after disease induction, as shown in FIG. 12G. Anti-dsDNA antibody and suPAR levels were measured in the murine serum at various time points during treatment.

[3] = system: TLR7 mediated pathways; experiment: Relative gene expression (RT-PCR) in myeloid cells stimulated with imiquimod; format: cell-based; details: IMQ (20 ug/mL) and LA1 (20 uM) co-treatment, 4 hours
Experimental: FIG. 3A illustrates transcriptional levels of biomarker IL-1b in myeloid cells after 4 hours of treatment with vehicle DMSO (UT), LA1 (20 uM), imiquimod (IMQ) (20 ug/mL), or IMQ and LA1 co-treatment. Bars show mean with SD (N=3) (*P<0.05, **P<0.01, ***P<0.001, ***P<0.0001).
FIG. 3B illustrates transcriptional levels of biomarker uPAR in myeloid cells after 4 hours of treatment with vehicle DMSO (UT), LA1 (20 uM), imiquimod (IMQ) (20 ug/mL), or IMQ and LA1 co-treatment. Bars show mean with SD (N=3) (*P<0.05, **P<0.01, ***P<0.001, ***P<0.0001).
FIG. 3C illustrates transcriptional levels of biomarker IL-6 in myeloid cells after 4 hours of treatment with vehicle DMSO (UT), LA1 (20 uM), imiquimod (IMQ) (20 ug/mL), or IMQ and LA1 co-treatment. Bars show mean with SD (N=3) (*P<0.05, **P<0.01, ***P<0.001, ***P<0.0001).
FIG. 3D illustrates transcriptional levels of biomarker NLRP3 in myeloid cells after 4 hours of treatment with vehicle DMSO (UT), LA1 (20 uM), imiquimod (IMQ) (20 ug/mL), or IMQ and LA1 co-treatment. Bars show mean with SD (N=3) (*P<0.05, **P<0.01, ***P<0.001, ***P<0.0001).
The impact of CD11b activation by LA1 on TLR7 mediated pathways was assessed by treating myeloid cells with imiquimod (IMQ), a known TLR7 stimulant, and co-treating myeloid cells with IMQ and LA1. Relative gene expression of various biomarkers was assessed by RT-PCR.

[4] = LA1 30 mg/kg BID co-treated with IMQ for 8 weeks (start week 0)
[5] = LA1 30 mg/kg BID started four weeks after initial IMQ (after disease onset)
[6] = LA1 30 mg/kg BID started two weeks after initial IMQ (after disease onset)

O=C(O)c1ccc(-c2ccc(/C=C3\SC(=S)N(Cc4ccccc4)C3=O)o2)cc1 [LA1, (Z)-4-(5-((3-benzyl-4-oxo-2-thioxothiazolidin-5-ylidene)methyl)furan-2-yl)benzoic acid]
significantly reduced: TLR7-dependent increase in IL-1b level (ELISA) [1] | TLR7-dependent increase in IL-6 level (ELISA) [1] | TLR7-dependent increase in TNF-a level (ELISA) [1] | TLR7-dependent increase in uPAR level (ELISA) [1] | anti-dsDNA antibody levels in serum [2, 4] | suPAR levels in serum [2, 4] | anti-dsDNA antibody levels in serum [2, 5] | suPAR levels in serum [2, 5] | anti-dsDNA antibody levels in serum [2, 6] | suPAR levels in serum [2, 6] | TLR7-dependent increase in IL-1b expression level [3] | TLR7-dependent increase in IL-6 expression level [3] | TLR7-dependent increase in NLRP3 expression level [3] | TLR7-dependent increase in uPAR expression level [3]
